# Experimental data taken from patent publication US7390829B2, “Alpha-2 adrenergic agonists” (Allergan, Inc., priority 2005, dated 2008).
# Tests used:
# [1] = molecular target: T1, alpha2A receptor (Homo sapiens, UniProt P08913); assay: Receptor Selection and Amplification Technology (RSAT) assay, α2A; format: cell-based; details: relative to brimonidine (standard full agonist), NA = not active at concentrations less than 10 micromolar
# T1 construct: expressed in transfected cells; host or cells: NIH-3T3
# T1 sequence (P08913 1-465): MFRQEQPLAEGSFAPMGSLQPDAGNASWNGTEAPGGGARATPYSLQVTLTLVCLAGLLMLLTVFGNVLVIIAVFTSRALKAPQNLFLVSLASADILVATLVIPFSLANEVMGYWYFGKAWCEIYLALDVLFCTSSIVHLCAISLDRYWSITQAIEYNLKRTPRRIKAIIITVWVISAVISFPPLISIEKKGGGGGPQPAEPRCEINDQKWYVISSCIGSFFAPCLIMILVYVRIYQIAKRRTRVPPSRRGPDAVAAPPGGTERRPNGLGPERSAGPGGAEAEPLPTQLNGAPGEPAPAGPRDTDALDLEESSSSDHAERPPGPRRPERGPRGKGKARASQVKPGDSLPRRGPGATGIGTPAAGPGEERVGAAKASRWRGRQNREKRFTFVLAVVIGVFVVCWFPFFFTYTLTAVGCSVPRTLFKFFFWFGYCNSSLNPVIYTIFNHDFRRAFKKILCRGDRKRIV
# Procedure: (§1) Receptor Selection and Amplification Technology (RSAT) Assay
# (§2) The RSAT assay measures a receptor-mediated loss of contact inhibition that results in selective proliferation of receptor-containing cells in a mixed population of confluent cells. The increase in cell number is assessed with an appropriate transfected marker gene such as β-galactosidase, the activity of which can be easily measured in a 96-well format. Receptors that activate the G protein, Gq, elicit this response. Alpha2 receptors, which normally couple to Gi, activate the RSAT response when coexpressed with a hybrid Gq protein that has a Gi receptor recognition domain, called Gq/i5.
# (§3) NIH-3T3 cells are plated at a density of 2×10^6 cells in 15 cm dishes and maintained in Dulbecco's modified Eagle's medium supplemented with 10% calf serum. […] After washing with phosphate-buffered saline, β-galactosidase enzyme activity is determined by adding 200 μl of the chromogenic substrate (consisting of 3.5 mM o-nitrophenyl-β-D-galactopyranoside and 0.5% nonidet P-40 in phosphate buffered saline), incubating overnight at 30° C. and measuring optical density at 420 nm. The absorbance is a measure of enzyme activity, which depends on cell number and reflects a receptor-mediated cell proliferation. […]
# [2] = molecular target: T2, alpha2B receptor (Homo sapiens, UniProt P18089); assay: Receptor Selection and Amplification Technology (RSAT) assay, α2B; format: cell-based; details: relative to brimonidine (standard full agonist), NA = not active at concentrations less than 10 micromolar
# T2 construct: expressed in transfected cells; host or cells: NIH-3T3
# T2 sequence (P18089 1-450): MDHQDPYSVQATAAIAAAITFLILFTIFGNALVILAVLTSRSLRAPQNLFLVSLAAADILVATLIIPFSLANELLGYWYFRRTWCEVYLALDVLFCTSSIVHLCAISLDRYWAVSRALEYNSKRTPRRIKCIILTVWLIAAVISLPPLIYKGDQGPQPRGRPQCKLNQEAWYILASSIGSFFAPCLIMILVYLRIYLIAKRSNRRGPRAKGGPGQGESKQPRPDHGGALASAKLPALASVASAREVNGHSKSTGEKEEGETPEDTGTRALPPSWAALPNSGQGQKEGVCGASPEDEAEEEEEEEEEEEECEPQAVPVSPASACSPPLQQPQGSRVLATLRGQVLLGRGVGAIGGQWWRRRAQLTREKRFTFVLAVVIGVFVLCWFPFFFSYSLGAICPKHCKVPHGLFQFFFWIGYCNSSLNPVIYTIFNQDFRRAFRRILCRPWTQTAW
# Procedure: as §1, §2, §3
# [3] = molecular target: T3, alpha2C receptor (Homo sapiens, UniProt P18825); assay: Receptor Selection and Amplification Technology (RSAT) assay, α2C; format: cell-based; details: relative to brimonidine (standard full agonist), NA = not active at concentrations less than 10 micromolar
# T3 construct: expressed in transfected cells; host or cells: NIH-3T3
# T3 sequence (P18825 1-462): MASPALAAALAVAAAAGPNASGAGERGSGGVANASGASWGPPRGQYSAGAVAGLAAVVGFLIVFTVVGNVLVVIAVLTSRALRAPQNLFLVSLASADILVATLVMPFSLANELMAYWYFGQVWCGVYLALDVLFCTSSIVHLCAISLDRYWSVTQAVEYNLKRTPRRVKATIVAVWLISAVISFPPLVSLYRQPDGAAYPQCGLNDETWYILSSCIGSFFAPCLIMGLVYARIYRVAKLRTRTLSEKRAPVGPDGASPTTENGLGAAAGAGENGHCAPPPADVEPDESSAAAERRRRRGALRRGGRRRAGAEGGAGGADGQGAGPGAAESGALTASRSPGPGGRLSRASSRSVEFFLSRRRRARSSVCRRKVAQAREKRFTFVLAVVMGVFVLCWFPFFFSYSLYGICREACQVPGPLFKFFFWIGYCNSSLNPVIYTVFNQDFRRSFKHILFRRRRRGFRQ
# Procedure: as §1, §2, §3
# [4] = system: locomotor activity; assay: Sedation model, rats (locomotor/exploratory activity); format: in vivo; details: for rat locomotor activity: 30 min following dosing (FIG. 3)
# Procedure: (§4) The utility of alpha2-adrenergic agonists is limited by a range of side effects, particularly sedation and cardiovascular depression. The sedative activity of the compounds is assessed by measuring their ability to reduce the exploratory activity of mice and rats when placed in a dark chamber 30 min following dosing. The animal's activity is determined automatically by placing it in a digicom analyzer chamber (Omnitech Electronic). These chambers have photocells criss-crossing the box that are broken as the animal moves around. The computer analyzes this movement and records total activity over a 5-min time period. […] This represents greater than a 300-fold margin of safety (FIG. 4).
# [5] = system: locomotor activity; assay: Sedation model, mice (locomotor/exploratory activity); format: in vivo; details: oral dose of 3 mg/kg
# Procedure: as §4
structure (smiles),measurement,setting,value
"OCC1=CCC[C@@H](Cc2c[nH]c(=S)[nH]2)C1 (single isomer, unassigned) [Compound 5]",Intrinsic activity α2A,[1],0.9
same,Intrinsic activity α2B,[2],1.0
same,Intrinsic activity α2C,[3],1.1
"OCC1=CCCC(Cc2c[nH]c(=S)[nH]2)C1 (stereo not drawn) [Compound 1, 4-(3-Hydroxymethyl-cyclohex-3-enylmethyl)-1,3-dihydro-imidazole-2-thione]","sedation / locomotor activity, rats",[4]; general statement (FIG. 3),does not sedate
same,rat locomotor activity,[4]; intraperitoneal doses up to at least 3 mg/kg,did not decrease
same,margin of safety,"[4]; non-sedating dose in rats (ip 3 mg/kg, oral 10 mg/kg) versus active dose",≥ 30 fold
same,rat locomotor activity,[4]; oral doses up to at least 10 mg/kg,did not decrease
"O=C(CC1CCCC1)OCC1=CCCC(Cc2c[nH]c(=S)[nH]2)C1 (stereo not drawn) [Compound 3, cyclopentyl-acetic acid 5-(2-thioxo-2,3-dihydro-1H-imidazol-4-ylmethyl)-cyclohex-1-enylmethyl ester]","sedation, rats",[4]; oral dose of 3 mg/kg,did not sedate
same,"sedation, mice",[5],did not sedate
